Results reported in patent publication US8987287B2, “Spirocyclic morphinans and their use” (Purdue Pharma L.P., priority 2012, dated 2015).

What was measured:
[1] = biological target: μ-opioid receptor (Homo sapiens (Human), UniProt P35372); test: μ-opioid receptor radioligand ([3H]-diprenorphine) dose-displacement binding assay; settings: binding affinity, read-out: Opioid Receptor Ki (nM) μ
Description: μ-Opioid Receptor Binding Assay Procedures: Radioligand dose-displacement binding assays for μ-opioid receptors used 0.3 nM [^3H]-diprenorphine (Perkin Elmer, Shelton, Conn.), with […] membrane protein/well in a final volume of 500 μl binding buffer (10 mM MgCl2, 1 mM EDTA, 5% DMSO, 50 mM HEPES, pH 7.4). Reactions were carried out in the absence or presence of increasing concentrations of unlabeled naloxone. All reactions were conducted in 96-deep well polypropylene plates for 2 hours at room temperature. Binding reactions were terminated by rapid filtration onto 96-well Unifilter GF/C filter plates (Perkin Elmer, Shelton, Conn.), presoaked in 0.5% polyethylenimine using a 96-well tissue harvester (Perkin Elmer, Shelton, Conn.) followed by performing three filtration washes with 500 μl of ice-cold binding buffer. Filter plates were subsequently dried at 50° C. for 2-3 hours. BetaScint scintillation cocktail (Perkin Elmer, Shelton, Conn.) was added (50 μl/well), and plates were counted using a Packard Top-Count for 1 min/well. The data were analyzed using the one-site competition curve fitting functions in GraphPad PRISM™ v. 3.0 or higher (San Diego, Calif.), or an in-house function for one-site competition curve-fitting.
(§1) In TABLE 1, binding affinity of certain Compounds of the Invention to the μ-, δ- and κ-opioid receptors was determined as described above.

[2] = biological target: κ opioid receptor (Homo sapiens (Human), UniProt P41145); test: κ-opioid receptor radioligand ([3H]-U69,593) dose-displacement binding assay; settings: binding affinity, read-out: Opioid Receptor Ki (nM) κ
Description: κ-Opioid Receptor Binding Assay Procedures: Membranes from recombinantHEK-293 cells, CHO or U-2 OS cells expressing the recombinant human κ opioid receptor (κ) were prepared by lysing cells in ice cold hypotonic buffer (2.5 mM MgCl2, 50 mM HEPES, pH 7.4) (10 mL/10 cm dish) followed by homogenization with a tissue grinder/Teflon pestle. Membranes were collected by centrifugation at 30,000×g for 15 min at 4° C. and pellets were resuspended in hypotonic buffer to a final concentration of 1-3 mg/mL. Protein concentrations were determined using the BioRad protein assay reagent with bovine serum albumen as standard. Aliquots of κ receptor membranes were stored at −80° C.
Radioligand dose displacement assays used 0.4 nM [^3H]-U69,593 (GE Healthcare, Piscataway, N.J.; 40 Ci/mmole) with 15 μg membrane protein (recombinant κ opioid receptor expressed in HEK 293 cells; in-house prep) in a final volume of 200 μl binding buffer (5% DMSO, 50 mM Trizma base, pH 7.4). Non-specific binding was determined in the presence of 10 μM unlabeled naloxone or U69,593. All reactions were performed in 96-well polypropylene plates for 1 hour at a temperature of about 25° C. Binding reactions were terminated by rapid filtration onto 96-well Unifilter GF/C filter plates (Perkin Elmer, Shelton, Conn.) presoaked in 0.5% polyethylenimine (Sigma). Harvesting was performed using a 96-well tissue harvester (Perkin Elmer, Shelton, Conn.) followed by five filtration washes with 200 μl ice-cold binding buffer. Filter plates were subsequently dried at 50° C. for 1-2 hours. Fifty μl/well scintillation cocktail (Perkin Elmer, Shelton, Conn.) was added and plates were counted in a Packard Top-Count for 1 min/well.
as §1

O=C1NC(=O)[C@@]2(CC[C@@]3(O)[C@H]4Cc5ccc(O)cc5[C@@]3(CCN4CC3CC3)C2)N1 [Compound 3, (4bR,4′S,8aS,9R)-11-(cyclopropylmethyl)-3,8a-dihydroxy-5,7,8,8a,9,10-hexahydrospiro[9,4b-(epiminoethano)phenanthrene-6,4′-imidazolidine]-2′,5′-dione]
Ki [1]: 15.9 ± 3.02 nM
Ki [2]: 0.6 ± 0.15 nM

O=C1NC[C@@]2(CC[C@@]3(O)[C@H]4Cc5ccc(O)cc5[C@@]3(CCN4CC3CC3)C2)N1 [Compound 5, (4bR,4′S,8aS,9R)-11-(cyclopropylmethyl)-3,8a-dihydroxy-5,7,8,8a,9,10-hexahydrospiro[9,4b-(epiminoethano)phenanthrene-6,4′-imidazolidin]-2′-one]
Ki [1]: 3.55 ± 0.77 nM
Ki [2]: 0.94 ± 0.18 nM
